How the values were obtained:
[1] = refractive index (Na D-line) (dimensionless); conditions: 101.33 kPa, Liquid, Standard Abbe refractometry
[2] = 101.33 kPa, Liquid
[3] = xn = mol fraction of the nth substance listed; conditions: 101 kPa, Liquid

OCCO [1,2-ethanediol]
Conditions | mass density, 293.15 K [kg/m3] | mass density, 303.15 K [kg/m3] | mass density, 313.15 K [kg/m3] | refractive index, 293.15 K | refractive index, 298.15 K
[1] | – | – | – | 1.4323 | 1.4309
[2] | 1113.37 | 1106.4 | 1099.35 | – | –

OCCO [1,2-ethanediol] + CCCCO
mass density [kg/m3], [3]
Conditions | x1 = 0.08923 | x1 = 0.249 | x1 = 0.3206 | x1 = 0.4019 | x1 = 0.5347 | x1 = 0.6571 | x1 = 0.6974 | x1 = 0.7753 | x1 = 0.81 | x1 = 0.9121
293.15 K | 826.85 | 861.02 | 878.11 | 898.74 | 936.02 | 975.06 | 989.14 | 1017.69 | 1030.76 | 1073.19
298.15 K | 823.02 | 857.21 | 874.25 | 894.96 | 932.22 | 971.34 | 985.27 | 1013.86 | 1027.06 | 1069.67
303.15 K | 819.29 | 853.42 | 870.64 | 891.24 | 928.63 | 967.77 | 981.88 | 1010.51 | 1023.76 | 1066.15
308.15 K | 815.49 | 849.65 | 866.86 | 887.45 | 924.91 | 964.18 | 978.14 | 1006.95 | 1020.29 | 1062.56
313.15 K | 811.51 | 845.69 | 862.94 | 883.57 | 921.05 | 960.49 | 974.54 | 1003.28 | 1016.76 | 1059.01

CCCCO [butan-1-ol]
Conditions | mass density, 293.15 K [kg/m3] | mass density, 298.15 K [kg/m3] | mass density, 303.15 K [kg/m3] | mass density, 308.15 K [kg/m3] | mass density, 313.15 K [kg/m3] | refractive index, 293.15 K | refractive index, 298.15 K
[1] | – | – | – | – | – | 1.3997 | 1.3978
[2] | 809.6 | 805.84 | 802.04 | 798.2 | 794.31 | – | –

CCCCCCO [hexan-1-ol]
Conditions | mass density, 293.15 K [kg/m3] | mass density, 298.15 K [kg/m3] | mass density, 303.15 K [kg/m3] | mass density, 308.15 K [kg/m3] | mass density, 313.15 K [kg/m3] | refractive index, 293.15 K | refractive index, 298.15 K
[1] | – | – | – | – | – | 1.4183 | 1.4161
[2] | 818.74 | 815.28 | 811.71 | 808.13 | 804.53 | – | –

CCCCCCO [hexan-1-ol] + OCCO
mass density [kg/m3], [3]
Conditions | x2 = 0.08275 | x2 = 0.1585 | x2 = 0.2374 | x2 = 0.3265 | x2 = 0.4905 | x2 = 0.5445 | x2 = 0.5965 | x2 = 0.6932 | x2 = 0.7757 | x2 = 0.9053
293.15 K | 829.72 | 840.78 | 853.56 | 869.87 | 905.8 | 919.79 | 934.39 | 965.41 | 996.6 | 1057.08
298.15 K | 826.21 | 837.17 | 849.99 | 866.29 | 902.2 | 916.19 | 930.83 | 961.84 | 993.11 | 1053.67
303.15 K | 822.63 | 833.58 | 846.39 | 862.69 | 898.58 | 912.56 | 927.24 | 958.23 | 989.49 | 1050.1
308.15 K | 819.02 | 829.96 | 842.67 | 859.01 | 894.88 | 908.9 | 923.53 | 954.54 | 985.79 | 1046.52
313.15 K | 815.44 | 826.33 | 839.04 | 855.36 | 891.27 | 905.23 | 919.95 | 950.95 | 982.18 | 1042.98

CCCCCCCCO [octan-1-ol]
Conditions | mass density, 293.15 K [kg/m3] | mass density, 298.15 K [kg/m3] | mass density, 303.15 K [kg/m3] | mass density, 308.15 K [kg/m3] | mass density, 313.15 K [kg/m3] | refractive index, 293.15 K | refractive index, 298.15 K
[1] | – | – | – | – | – | 1.4298 | 1.428
[2] | 825.12 | 821.75 | 818.31 | 814.8 | 811.41 | – | –

CCCCCCCCO [octan-1-ol] + OCCO
mass density [kg/m3], [3]
Conditions | x2 = 0.07997 | x2 = 0.159 | x2 = 0.2159 | x2 = 0.36 | x2 = 0.4825 | x2 = 0.5912 | x2 = 0.6299 | x2 = 0.7437 | x2 = 0.8063 | x2 = 0.8892
293.15 K | 833.01 | 842 | 849.21 | 870.86 | 894.13 | 920.03 | 930.8 | 968.64 | 994.57 | 1036.57
298.15 K | 829.64 | 838.63 | 845.74 | 867.38 | 890.64 | 916.52 | 927.19 | 965.11 | 991.03 | 1033.02
303.15 K | 826.15 | 835.13 | 842.24 | 863.92 | 887.11 | 912.94 | 923.7 | 961.5 | 987.45 | 1029.52
308.15 K | 822.68 | 831.61 | 838.76 | 860.33 | 883.47 | 909.33 | 920.08 | 957.92 | 983.8 | 1025.99
313.15 K | 819.15 | 828.07 | 835.18 | 856.83 | 879.91 | 905.71 | 916.5 | 954.32 | 980.25 | 1022.37
